Publication PMC9421656, “Beyond Retigabine: Design, Synthesis, and Pharmacological Characterization of a Potent and Chemically Stable Neuronal Kv7 Channel Activator with Anticonvulsant Activity” (Journal of Medicinal Chemistry, 2022)
“Also recorded” adds a separate entry of the source. Like-named read-outs stand apart in the source and are kept apart here.

What was measured:
epileptic activity = system: epileptic activity; design: method as in PMID 25319542; conditions: cited from earlier work
[1] = literature value; cited from earlier work
Kv7.2/Kv7.3 channels [2] = molecular target: T1, Kv7.2/Kv7.3 channels (Homo sapiens, UniProt O43525+O43526); assay: FluxOR thallium-sensitive fluorescence-based assay in CHO cells stably expressing Kv7.2 + Kv7.3; type: cell-based; design: expressed in transfected cells; conditions: for Slope of the fluorescent signal at 10 μM: initial slope of FluxOR signal between 5 and 15 s, mean ± SEM; for Slope of the fluorescent signal at 10 μM / Kv7 opening activity (in words): 10 μM; for Kv7 opening activity (in words): compared with retigabine or the reference compound of the subseries
Procedure: While assay robustness in Kv7.2/Kv7.3-expressing cells was high (Z′ factor > 0.5),[27] the Z′ factor calculated in CHO cells expressing Kv7.2 subunits alone was <0.5; thus, all subsequent pharmacological screens were performed in Kv7.2/Kv7.3-expressing cells. […] The Kv7.2/Kv7.3-stable cell line was generated using a plasmid-based PiggyBac transposon system that enables genomic integration of multiple independent transposons containing distinct cDNA sequences. cDNAs for KCNQ2 and KCNQ3 genes (encoding for Kv7.2 and Kv7.3, respectively) were cloned into two different PiggyBac expression vectors (pB-CMV-MCS-EF1α-RedPuro, System Biosciences), and these two plasmids, together with a plasmid encoding for the transposase (System Biosciences), were transfected into CHO cells using Lipofectamine 2000 (Invitrogen) as indicated in the protocol provided by the seller company.
The selected clone stably expressing Kv7.2/Kv7.3 channels was grown in DMEM supplemented with 10% FBS, 50 U/mL Pen-Strep, 2 mM L-glutamine (all purchased from Gibco), and 4 μg/mL puromycin (Sigma) in a humidified atmosphere at 37 °C with 5% CO2. […] A kinetic dispense microplate reader (FLUOstar Optima) was used to read the plate, setting the excitation filter at 485 nm and the emission filter at 520 nm; “Stimulus buffer” prepared as indicated in the protocol was automatically added to wells after 5 s of recording; the plate was read every 1 s, for 50 s. The results were analyzed using Optima Data Analysis and Microsoft Excel.
Only experiments resulting in a Z′ > 0.5 were considered. Data shown (Figures 1D,E,F,G and 3B) were obtained from at least three independent experiments.
Data were analyzed using the GraphPad Prism 8.0.2 (GraphPad Software, LaJolla, CA). Statistically significant differences in the initial slope of the curves were evaluated through ordinary one-way ANOVA, and multiple comparisons were corrected with the Tukey test. […] Indicated EC50 values are the mean of at least three independent experiments ± standard error of the mean (SEM).

Kv7.2/Kv7.3 channels [3] = molecular target: T1, Kv7.2/Kv7.3 channels; design: expressed in transfected cells; conditions: cited from earlier work
Kv7.2/Kv7.3 channels [4] = molecular target: T1, Kv7.2/Kv7.3 channels; assay: Whole-cell patch-clamp electrophysiology in CHO cells expressing Kv7.2/Kv7.3; type: cell-based; design: expressed in transfected cells; host or cells: CHO cells, transient transfection (pcDNA3.1, Lipofectamine 2000); conditions: for EC50: dose-response 0.01–30 μM
Procedure: Channel subunits were expressed in Chinese hamster ovary (CHO) cells by transient transfection, using plasmids containing cDNAs encoding human Kv7.2 and/or Kv7.3, all cloned in the pcDNA3.1 vector. According to the experimental protocol, these plasmids were expressed individually or in combination, together with a plasmid-expressing enhanced green fluorescent protein (Clontech, Palo Alto, CA) used as a transfection marker. Total cDNA in the transfection mixture was kept at 4 μg. CHO cells were grown in 100 mm plastic Petri dishes in Dulbecco’s modified Eagle’s medium containing 10% fetal bovine serum, nonessential amino acids (0.1 mM), penicillin (50 U/mL), and streptomycin ([…]) in a humidified atmosphere at 37 °C with 5% CO2.
Currents from CHO cells were recorded at room temperature (20–22 °C) using the whole-cell configuration of the patch-clamp technique, with glass micropipettes of 3–5 MΩ resistance. During the recording, constant perfusion of extracellular solution was maintained. […] The pipette (intracellular) solution contained (in mM): 140 KCl, 2 MgCl2, 10 EGTA, 10 HEPES, 5 Mg^2+-ATP, at pH 7.3–7.4, with KOH. […] To evaluate the activity of each compound on Kv7.2 + Kv7.3 currents, the cells were clamped at −80 mV and conductance–voltage curves (G/V curves; activation curves) were generated by normalizing to the maximal value of the instantaneous isopotential currents at 0 mV and expressing the normalized values as a function of the preceding voltages. Data were fit to a Boltzmann distribution of the following form: y = max/[1 + exp (V1/2 – V)/k], where V is the test potential, V1/2 is the half-activation potential, and k is the slope factor.
Indicated EC50 values are the mean of at least three independent experiments ± standard error of the mean (SEM).
Statistically significant differences in electrophysiological data were evaluated with the Student t test or with ANOVA followed by the Student–Newman–Keuls test when multiple groups were compared, with the threshold set at p < 0.05. […] Values are expressed as the […] mean ± standard error of the mean (SEM) of at least three cells recorded in at least three independent transfections.

Kv7.2 = conditions: TEA blockade of Kv7.2; cited from earlier work
Kv7.2/Kv7.3 channel = conditions: TEA blockade of heteromeric Kv7.2/Kv7.3; cited from earlier work
Kv7.2/Kv7.3 currents = Kv7.2/Kv7.3 currents (Homo sapiens, UniProt O43525+O43526); conditions: 3 mM TEA
Procedure: To ensure that both Kv7.2 and Kv7.3 subunits were expressed into the selected clone and formed heteromeric channels, pharmacological experiments with the Kv7 channel blocker tetraethylammonium (TEA) were performed.[64] […] The effect of TEA blockade on Kv7.2/Kv7.3 currents on the selected clone was compared to that of the blockade exerted on the control group, represented by CHO cells transiently transfected with Kv7.2/Kv7.3 channels. The effect of the TEA blockade was investigated using a ramp protocol in which Kv7.2/Kv7.3 currents were activated by 3 s voltage ramps from −80 to +20 mV.

[5] = In vitro metabolism assay (S9 fraction of human liver microsomes); type: in vitro ADME; conditions: human
Procedure: To further explore the metabolic stability of compounds 25, 26, and 60 in a biologically relevant model, they were tested in an in vitro metabolism assay (S9 fraction of human liver microsomes) using retigabine as a comparator.[33],[34] In this assay, a very small extent (4.7 ± 0.5%) of retigabine undergoes phase I metabolism, whereas a larger fraction (17.4 ± 1.2%) was metabolized in phase II reactions, as previously reported.[35]

[6] = Photostability under UV-visible light with HPLC analysis (degradation, dimer formation); type: physicochemical; conditions: for % Degradation (3h, UV): 10 μM, buffered aqueous solution pH 7.4, 3 h UV-visible light, ± SD; for Dimers Formation / Photodegradation (in words): 3 h UV-visible light; for Dimers Formation: HPLC at 550 nm; for Photodegradation (in words): compared with retigabine
Source text: Two different HPLC wavelengths were utilized: (a) […] to evaluate the decreased concentration of the starting molecule; (b) 550 nm to investigate the formation of phenazine/phenazinium dimers, as previously described.[10] Unfortunately, dimer formation was detected for all tested compounds, except for 23 and 24. […]. […]. The first group consisted of N4 (−X- in Table 2) substituted analogues, in which the tertiary amine is unavailable for the formation of phenazine dimers (compounds 25–28). […]. The third group included derivatives replacing hydrogen atoms with electron-withdrawing fluorine atoms at position R2 of the benzene-1,2,4-triamine core scaffold (compounds 59, 60), a strategy likely reducing the reactivity of N2 and N4. […].
Photostability experiments were performed by dissolving compounds in DMSO and then diluting in buffered aqueous solutions at pH 7.4 to a final concentration of 10 μM. 1 cm quartz cells, filled with the abovementioned solutions, were irradiated by a UV lamp (UV Consulting TQ 150 equipped with Duran 50 sleeve and 150 W power supply unit, Peschl, Germany) at a fixed distance of 20 cm from the UV source. Control samples were maintained at 37 °C, wrapped with aluminum foil to avoid light exposure, and used to assess chemical stability of the compounds. At predetermined intervals, aliquots were withdrawn and analyzed by UHPLC in order to assess the concentration decrease of the starting materials and the presence of the dimers usually formed by retigabine.
Photostability and chemical stability experiments were carried out on a Kinetex^TM C18 150 × 2.1 mm × 2.6 μm (100 Å) column (Phenomenex, Bologna, Italy). The optimal mobile phase consisted of 0.1% TFA/H2O v/v (A) and 0.1% TFA/ACN v/v (B). Analysis was performed in gradient elution as follows: 0–13.0 min, 5–65% B; 13–14.0 min, 65–95% B; 14–15.0 min, isocratic to 95% B; 15–15.01 min, 95–5% B; then 3 min for column re-equilibration. The flow rate was 0.5 mL min^–1. The column oven temperature was set to 45 °C. The injection volume was 7 μL of sample. The following PDA parameters were applied: sampling rate, 12.5 Hz; detector time constant, 0.160 s; cell temperature, 40 °C. Data acquisition was set in the range 190–800 nm, and chromatograms were monitored at 224 nm to assess the decrease in concentration of the starting material, while a wavelength of 550 nm was used to eventually detect dimerization.

Chain of Kv7.2/Kv7.3 currents (O43526 whole entry): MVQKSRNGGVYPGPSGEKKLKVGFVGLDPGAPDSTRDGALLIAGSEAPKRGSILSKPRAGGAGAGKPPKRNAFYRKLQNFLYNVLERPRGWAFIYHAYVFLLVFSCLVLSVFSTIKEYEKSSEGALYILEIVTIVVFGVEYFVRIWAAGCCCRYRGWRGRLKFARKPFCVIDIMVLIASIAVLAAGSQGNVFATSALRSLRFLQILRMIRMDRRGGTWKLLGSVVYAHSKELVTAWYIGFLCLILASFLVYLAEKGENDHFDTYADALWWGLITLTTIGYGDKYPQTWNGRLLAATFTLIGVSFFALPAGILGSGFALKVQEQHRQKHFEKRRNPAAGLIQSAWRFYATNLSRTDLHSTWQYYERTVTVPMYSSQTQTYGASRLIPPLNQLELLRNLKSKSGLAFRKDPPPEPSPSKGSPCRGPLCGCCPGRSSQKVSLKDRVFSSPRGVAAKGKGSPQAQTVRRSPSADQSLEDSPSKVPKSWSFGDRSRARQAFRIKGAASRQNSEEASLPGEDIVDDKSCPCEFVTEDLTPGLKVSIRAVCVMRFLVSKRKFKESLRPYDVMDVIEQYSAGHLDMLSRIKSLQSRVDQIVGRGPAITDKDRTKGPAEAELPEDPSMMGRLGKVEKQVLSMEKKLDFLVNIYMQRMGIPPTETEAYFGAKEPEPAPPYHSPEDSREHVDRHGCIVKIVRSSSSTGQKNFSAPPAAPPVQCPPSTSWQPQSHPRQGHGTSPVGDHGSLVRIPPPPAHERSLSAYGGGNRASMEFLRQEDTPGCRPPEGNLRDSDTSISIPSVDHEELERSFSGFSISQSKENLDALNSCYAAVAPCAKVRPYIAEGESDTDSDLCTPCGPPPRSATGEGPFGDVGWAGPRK
Chain of Kv7.2/Kv7.3 currents (O43525 whole entry): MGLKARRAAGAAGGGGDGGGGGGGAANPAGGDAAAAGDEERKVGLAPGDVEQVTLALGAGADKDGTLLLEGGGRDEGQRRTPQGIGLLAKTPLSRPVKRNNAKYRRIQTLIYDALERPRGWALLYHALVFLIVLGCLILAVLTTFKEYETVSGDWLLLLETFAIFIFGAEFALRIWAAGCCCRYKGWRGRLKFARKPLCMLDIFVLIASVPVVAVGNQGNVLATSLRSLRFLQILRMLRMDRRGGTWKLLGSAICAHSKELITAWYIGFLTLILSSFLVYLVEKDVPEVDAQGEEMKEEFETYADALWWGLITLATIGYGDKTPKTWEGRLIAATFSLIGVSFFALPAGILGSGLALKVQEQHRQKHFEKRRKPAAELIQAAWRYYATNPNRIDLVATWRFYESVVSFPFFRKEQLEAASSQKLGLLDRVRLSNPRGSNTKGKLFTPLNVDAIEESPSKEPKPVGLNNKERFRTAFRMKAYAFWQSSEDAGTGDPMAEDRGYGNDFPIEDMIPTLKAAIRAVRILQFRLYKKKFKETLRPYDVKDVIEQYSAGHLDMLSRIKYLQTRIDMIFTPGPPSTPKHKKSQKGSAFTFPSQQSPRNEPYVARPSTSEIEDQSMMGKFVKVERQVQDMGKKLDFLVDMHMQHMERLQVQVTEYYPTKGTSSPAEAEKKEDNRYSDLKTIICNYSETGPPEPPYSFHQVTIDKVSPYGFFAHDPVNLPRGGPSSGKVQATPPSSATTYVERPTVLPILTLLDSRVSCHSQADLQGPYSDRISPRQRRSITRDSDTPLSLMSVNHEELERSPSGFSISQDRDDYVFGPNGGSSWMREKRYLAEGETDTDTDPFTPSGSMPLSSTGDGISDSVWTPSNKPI

Row | Structure (SMILES) | Slope of the fluorescent signal at 10 μM (Kv7.2/Kv7.3 channels [2]) | Kv7 opening activity (in words) (Kv7.2/Kv7.3 channels [2]) | Phase I turnover metabolism [5] | Phase II turnover metabolism [5] | % Degradation (3h, UV) [6] | Dimers Formation [6] | Photodegradation (in words) [6] | other results
1 | C#CCN(Cc1ccc(F)cc1)c1ccc(NC(=O)OCC)c(N)c1 [P-RET, N-propargyl retigabine] |  |  |  |  |  |  |  | In vivo potency higher than retigabine (suppression of epileptic activity) (epileptic activity): 2.5 times; Increase in brain/plasma ratio compared to retigabine [1]: 14 fold; logP (Lipophilicity (log P)): 3.48
2 | CCOC(=O)Nc1ccc(NCc2ccc(C(F)(F)F)cc2)c(F)c1N [RL-81] | 0.0272±0.0014 |  |  |  |  |  |  | EC50 (Kv7.2/Kv7.3 channels [2]; FluxOR dose-response, slope parameter, read-out: EC50 (initial slope of the fluorescence signal)): 4 ± 1 µM; Potency relative to retigabine as a Kv7 activator in vitro (Kv7.2/Kv7.3 channels [3]): > 15 times; Leftward shift in V1/2 (ΔV1/2) (Kv7.2/Kv7.3 channels [4]; 1 μM): about 40 mV; Idrug/Icontrol (maximal current density) (Kv7.2/Kv7.3 channels [4]; calculated at +20 mV): 1.6 ± 0.2; EC50 (Kv7.2/Kv7.3 channels [4]; current at +20 mV, read-out: Maximal currents EC50): 0.27 ± 0.04 µM; EC50 (Kv7.2/Kv7.3 channels [4]; read-out: ΔV1/2 EC50): 0.24 ± 0.06 µM; Potency over retigabine as Kv7.2/Kv7.3 activator (fold/times) (Kv7.2/Kv7.3 channels [4]; from ΔV1/2 EC50): 10
3 | CCOC(=O)Nc1ccc(NCc2ccc(F)cc2)c(F)c1N [SF0034] |  |  |  |  |  |  |  | Potency relative to retigabine in activating Kv7.2/Kv7.3 channels in vitro (Kv7.2/Kv7.3 channels [3]): five times more potent than retigabine
4 | CC[N+](CC)(CC)CC [TEA, tetraethylammonium] |  |  |  |  |  |  |  | IC50 (Kv7.2): 300 µM; IC50 (Kv7.2/Kv7.3 channel): 3000 µM; Current inhibition (Kv7.2/Kv7.3 currents; CHO cells transiently transfected with Kv7.2/Kv7.3 (control group)): about 55%; Current inhibition (Kv7.2/Kv7.3 currents; selected stable clone (clone 5)): about 35%
5 | CCCCCCC(=O)Nc1ccc(N(C)Cc2ccc(C(F)(F)F)cc2)cc1N [compound 25, N-(2-Amino-4-(methyl(4-(trifluoromethyl)benzyl)amino)phenyl)heptanamide] | 0.0637±0.0033 | improved agonist activity; also recorded: higher than that of retigabine | 20.6 ± 1.4% | 33.2 ± 1.0% | 63.3±2.8% | did not form dimers and No | underwent extensive photodegradation | 
6 | CN(Cc1ccc(C(F)(F)F)cc1)c1ccc(NC(=O)CC(C)(C)C)c(N)c1 [compound 26, N-(2-Amino-4-(methyl(4-(trifluoromethyl)benzyl)amino)phenyl)-3,3-dimethylbutanamide] | 0.0721±0.0034 | improved agonist activity; also recorded: higher than that of retigabine | 32.1 ± 1.2% | 32.7 ± 0.3% | 99.5±0.1% | did not form dimers and No | underwent extensive photodegradation | 
